Source: patent publication US20240158446A1, “CYCLIC COMPOUND HAVING SELECTIVE INHIBITORY ACTION ON KRAS OVER HRAS AND NRAS” (CHUGAI SEIYAKU KABUSHIKI KAISHA, priority 2021, published 2024)
*1 amine or outer side, *2 acyl side, *3 side chain or, on linkers, in order; H or OH if unused. Where a SMILES comes first, the peptide text is derived from it. Bridges are numbered along the chain shown (N, C = ends). [ ]: non-standard residue; d: D form. The star is where a group is joined. hPhe(3-Cl-4-CF3) = N[C@@H](CCc1ccc(C(F)(F)F)c(Cl)c1)C(=O)O; NPrPhe(4-CF3) = CCCN[C@@H](Cc1ccc(C(F)(F)F)cc1)C(=O)O; Abu(4,4,4-F3) = N[C@@H](CC(F)(F)F)C(=O)O; NMeGly(cPent) = CN[C@H](C(=O)O)C1CCCC1; X44 = CC1(C)CN([*:1])[C@@H]1C(=O)[*:2]; cisHyp = O=C(O)[C@@H]1C[C@H](O)CN1; Hyp = O=C(O)[C@@H]1C[C@@H](O)CN1; Gly(cBu) = N[C@H](C(=O)O)C1CCC1; NMeD = CN[C@@H](CC(=O)O)C(=O)O; NMeL = CN[C@@H](CC(C)C)C(=O)O; X12 = N#CCN(CC(=O)[*:2])[*:1]; hPip = O=C(O)[C@@H]1CCCCCN1; Morpholide = C1CN(*)CCO1; NMeA = CN[C@@H](C)C(=O)O; Ac5c = NC1(C(=O)O)CCCC1; Aze = O=C(O)[C@@H]1CCN1; Ethyl(2,2-F2) = FC(F)C*; NcPrGly = O=C(O)CNC1CC1; Abu = CC[C@H](N)C(=O)O; NPrGly = CCCNCC(=O)O; NEtG = CCNCC(=O)O; Sar = CNCC(=O)O

How the values were obtained:
[1] = biological target: GDP-bound KRAS wild-type protein (Homo sapiens, UniProt P01116); assay: Binding to KRAS by surface plasmon resonance (SPR), Single Cycle Kinetics; conditions: SPR Single Cycle Kinetics, GDP-bound KRAS wild-type protein, 1:1 binding model; read-out: KRAS KD
[2] = biological target: GDP-bound NRAS wild-type protein (Homo sapiens, UniProt P01111); assay: Binding to NRAS by surface plasmon resonance (SPR), Single Cycle Kinetics; conditions: SPR, GDP-bound NRAS wild-type protein vs GDP-bound KRAS wild-type protein
[3] = biological target: GDP-bound HRAS wild-type protein (Homo sapiens, UniProt P01112); assay: Binding to HRAS by surface plasmon resonance (SPR), Single Cycle Kinetics; conditions: SPR, GDP-bound HRAS wild-type protein vs GDP-bound KRAS wild-type protein
GDP-bound HRAS wild-type protein, sequence (P01112 whole entry): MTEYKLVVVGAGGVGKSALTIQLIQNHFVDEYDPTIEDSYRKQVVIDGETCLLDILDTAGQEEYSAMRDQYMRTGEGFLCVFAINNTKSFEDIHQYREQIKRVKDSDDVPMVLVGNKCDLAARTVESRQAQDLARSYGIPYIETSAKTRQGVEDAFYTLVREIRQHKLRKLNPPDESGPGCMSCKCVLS

GDP-bound KRAS wild-type protein, sequence (P01116 whole entry): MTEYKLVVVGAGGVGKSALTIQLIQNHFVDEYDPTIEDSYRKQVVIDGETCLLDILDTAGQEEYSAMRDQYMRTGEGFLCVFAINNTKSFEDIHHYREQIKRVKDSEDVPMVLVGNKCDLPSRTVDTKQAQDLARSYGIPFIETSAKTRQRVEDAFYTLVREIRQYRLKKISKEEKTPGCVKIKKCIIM
GDP-bound NRAS wild-type protein, sequence (P01111 whole entry): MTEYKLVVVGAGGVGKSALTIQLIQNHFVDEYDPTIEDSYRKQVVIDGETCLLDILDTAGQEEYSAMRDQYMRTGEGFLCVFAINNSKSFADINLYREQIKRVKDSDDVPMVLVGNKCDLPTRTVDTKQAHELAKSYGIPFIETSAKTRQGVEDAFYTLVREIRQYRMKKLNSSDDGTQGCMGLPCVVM

Row | Kd [1] | SMILES | NRAS/KRAS (ratio of KD value for NRAS to KD value for KRAS) [2] | HRAS/KRAS (ratio of KD value for HRAS to KD value for KRAS) [3]
1 | 0.2 nM | CCCN1C(=O)[C@@H]2CCN2C(=O)[C@H](C)N(C)C(=O)[C@H]([C@@H](C)CC)NC(=O)[C@H](CC(C)C)N(C)C(=O)C[C@@H](C(=O)N2CCOCC2)N(C)C(=O)[C@H](C2CCCC2)N(C)C(=O)C2(CCCC2)NC(=O)[C@@H]2C[C@H](OCC)CN2C(=O)[C@H](CCc2ccc(C(F)(F)F)c(Cl)c2)NC(=O)CN(C)C(=O)[C@@H]1Cc1ccc(C(F)(F)F)cc1 [PP0242] ([NMeL]I[NMeA][Aze][NPrPhe(4-CF3)][Sar][hPhe(3-Cl-4-CF3)][cisHyp](Et)[Ac5c][NMeGly(cPent)][NMeD]-Morpholide; lactam N-11) | C (A compound having a KD ratio of 0.1 or more and less than 3 is denoted as C) | C (A compound having a KD ratio of 0.1 or more and less than 3 is denoted as C)
2 | 0.31 nM | CCCN1C(=O)CN(C)C(=O)CN(C)C(=O)[C@H]([C@@H](C)CC)NC(=O)[C@H](CC(C)C)N(C)C(=O)C[C@@H](C(=O)N2CCOCC2)N(C)C(=O)[C@H](C2CCCC2)N(C)C(=O)C2(CCCC2)NC(=O)[C@@H]2C[C@H](OCC)CN2C(=O)[C@H](CCc2ccc(C(F)(F)F)c(Cl)c2)NC(=O)CN(C)C(=O)[C@@H]1Cc1ccc(C(F)(F)F)cc1 [PP0243] ([NMeL]I[Sar][Sar][NPrPhe(4-CF3)][Sar][hPhe(3-Cl-4-CF3)][cisHyp](Et)[Ac5c][NMeGly(cPent)][NMeD]-Morpholide; lactam N-11) | B (a compound having 3 or more and less than 10 is denoted as B) | C (A compound having a KD ratio of 0.1 or more and less than 3 is denoted as C)
3 | 0.054 nM | CCCN1C(=O)CN(C)C(=O)CN(C)C(=O)[C@H]([C@@H](C)CC)NC(=O)[C@H](CC(C)C)N(C)C(=O)C[C@@H](C(=O)N2CCOCC2)N(C)C(=O)[C@H](C2CCCC2)N(C)C(=O)C2(CCCC2)NC(=O)[C@@H]2C[C@@H](OCC(F)F)CN2C(=O)[C@H](CCc2ccc(C(F)(F)F)c(Cl)c2)NC(=O)CN(C)C(=O)[C@@H]1Cc1ccc(C(F)(F)F)cc1 [PP0246] ([NMeL]I[Sar][Sar][NPrPhe(4-CF3)][Sar][hPhe(3-Cl-4-CF3)][Hyp](Ethyl(2,2-F2))[Ac5c][NMeGly(cPent)][NMeD]-Morpholide; lactam N-11) | B (a compound having 3 or more and less than 10 is denoted as B) | C (A compound having a KD ratio of 0.1 or more and less than 3 is denoted as C)
4 | 0.38 nM | CCCN1C(=O)CN(C)C(=O)CN(C)C(=O)[C@H]([C@@H](C)CC)NC(=O)[C@@H]2CCCCCN2C(=O)C[C@@H](C(=O)N2CCOCC2)N(C)C(=O)[C@H](C2CCCC2)N(C)C(=O)C2(CCCC2)NC(=O)[C@@H]2CCCN2C(=O)[C@H](CCc2ccc(C(F)(F)F)c(Cl)c2)NC(=O)CN(C)C(=O)[C@@H]1Cc1ccc(C(F)(F)F)cc1 [PP0247] ([hPip]I[Sar][Sar][NPrPhe(4-CF3)][Sar][hPhe(3-Cl-4-CF3)]P[Ac5c][NMeGly(cPent)][NMeD]-Morpholide; lactam N-11) | B (a compound having 3 or more and less than 10 is denoted as B) | C (A compound having a KD ratio of 0.1 or more and less than 3 is denoted as C)
5 | 1.1 nM | CCCN1C(=O)CN(C)C(=O)CN(C)C(=O)[C@H](CC)NC(=O)[C@H](CC(C)C)N(C)C(=O)C[C@@H](C(=O)N2CCOCC2)N(C)C(=O)[C@H](C2CCCC2)N(C)C(=O)C2(CCCC2)NC(=O)[C@@H]2CCCN2C(=O)[C@H](CCc2ccc(C(F)(F)F)c(Cl)c2)NC(=O)CN(C)C(=O)[C@@H]1Cc1ccc(C(F)(F)F)cc1 [PP0248] ([NMeL][Abu][Sar][Sar][NPrPhe(4-CF3)][Sar][hPhe(3-Cl-4-CF3)]P[Ac5c][NMeGly(cPent)][NMeD]-Morpholide; lactam N-11) | B (a compound having 3 or more and less than 10 is denoted as B) | B (a compound having 3 or more and less than 10 is denoted as B)
6 | 0.69 nM | CCCN1C(=O)CN(C)C(=O)CN(C)C(=O)[C@H](CC(F)(F)F)NC(=O)[C@H](CC(C)C)N(C)C(=O)C[C@@H](C(=O)N2CCOCC2)N(C)C(=O)[C@H](C2CCCC2)N(C)C(=O)C2(CCCC2)NC(=O)[C@@H]2CCCN2C(=O)[C@H](CCc2ccc(C(F)(F)F)c(Cl)c2)NC(=O)CN(C)C(=O)[C@@H]1Cc1ccc(C(F)(F)F)cc1 [PP0249] ([NMeL][Abu(4,4,4-F3)][Sar][Sar][NPrPhe(4-CF3)][Sar][hPhe(3-Cl-4-CF3)]P[Ac5c][NMeGly(cPent)][NMeD]-Morpholide; lactam N-11) | B (a compound having 3 or more and less than 10 is denoted as B) | C (A compound having a KD ratio of 0.1 or more and less than 3 is denoted as C)
7 | 0.12 nM | CCCN1C(=O)CN(C)C(=O)CN(C)C(=O)[C@H](C2CCC2)NC(=O)[C@H](CC(C)C)N(C)C(=O)C[C@@H](C(=O)N2CCOCC2)N(C)C(=O)[C@H](C2CCCC2)N(C)C(=O)C2(CCCC2)NC(=O)[C@@H]2CCCN2C(=O)[C@H](CCc2ccc(C(F)(F)F)c(Cl)c2)NC(=O)CN(C)C(=O)[C@@H]1Cc1ccc(C(F)(F)F)cc1 [PP0250] ([NMeL][Gly(cBu)][Sar][Sar][NPrPhe(4-CF3)][Sar][hPhe(3-Cl-4-CF3)]P[Ac5c][NMeGly(cPent)][NMeD]-Morpholide; lactam N-11) | B (a compound having 3 or more and less than 10 is denoted as B) | C (A compound having a KD ratio of 0.1 or more and less than 3 is denoted as C)
8 | 0.34 nM | CCCN1C(=O)CN(C)C(=O)CN(C2CC2)C(=O)[C@H]([C@@H](C)CC)NC(=O)[C@H](CC(C)C)N(C)C(=O)C[C@@H](C(=O)N2CCOCC2)N(C)C(=O)[C@H](C2CCCC2)N(C)C(=O)C2(CCCC2)NC(=O)[C@@H]2CCCN2C(=O)[C@H](CCc2ccc(C(F)(F)F)c(Cl)c2)NC(=O)CN(C)C(=O)[C@@H]1Cc1ccc(C(F)(F)F)cc1 [PP0252] ([NMeL]I[NcPrGly][Sar][NPrPhe(4-CF3)][Sar][hPhe(3-Cl-4-CF3)]P[Ac5c][NMeGly(cPent)][NMeD]-Morpholide; lactam N-11) | B (a compound having 3 or more and less than 10 is denoted as B) | B (a compound having 3 or more and less than 10 is denoted as B)
9 | 0.55 nM | CCCN1CC(=O)N(C)CC(=O)N(CCC)[C@@H](Cc2ccc(C(F)(F)F)cc2)C(=O)N(C)CC(=O)N[C@@H](CCc2ccc(C(F)(F)F)c(Cl)c2)C(=O)N2CCC[C@H]2C(=O)NC2(CCCC2)C(=O)N(C)[C@@H](C2CCCC2)C(=O)N(C)[C@H](C(=O)N2CCOCC2)CC(=O)N(C)[C@@H](CC(C)C)C(=O)N[C@@H]([C@@H](C)CC)C1=O [PP0253] ([NMeL]I[NPrGly][Sar][NPrPhe(4-CF3)][Sar][hPhe(3-Cl-4-CF3)]P[Ac5c][NMeGly(cPent)][NMeD]-Morpholide; lactam N-11) | B (a compound having 3 or more and less than 10 is denoted as B) | B (a compound having 3 or more and less than 10 is denoted as B)
10 | 0.16 nM | CCCN1C(=O)CN(C)C(=O)CN(CC#N)C(=O)[C@H]([C@@H](C)CC)NC(=O)[C@H](CC(C)C)N(C)C(=O)C[C@@H](C(=O)N2CCOCC2)N(C)C(=O)[C@H](C2CCCC2)N(C)C(=O)C2(CCCC2)NC(=O)[C@@H]2CCCN2C(=O)[C@H](CCc2ccc(C(F)(F)F)c(Cl)c2)NC(=O)CN(C)C(=O)[C@@H]1Cc1ccc(C(F)(F)F)cc1 [PP0254] ([NMeL]I[X12][Sar][NPrPhe(4-CF3)][Sar][hPhe(3-Cl-4-CF3)]P[Ac5c][NMeGly(cPent)][NMeD]-Morpholide; lactam N-11) | B (a compound having 3 or more and less than 10 is denoted as B) | C (A compound having a KD ratio of 0.1 or more and less than 3 is denoted as C)
11 | 0.99 nM | CCCN1C(=O)CN(C)C(=O)[C@H]2N(CC2(C)C)C(=O)[C@H]([C@@H](C)CC)NC(=O)[C@H](CC(C)C)N(C)C(=O)C[C@@H](C(=O)N2CCOCC2)N(C)C(=O)[C@H](C2CCCC2)N(C)C(=O)C2(CCCC2)NC(=O)[C@@H]2CCCN2C(=O)[C@H](CCc2ccc(C(F)(F)F)c(Cl)c2)NC(=O)CN(C)C(=O)[C@@H]1Cc1ccc(C(F)(F)F)cc1 [PP0256] ([NMeL]I[X44][Sar][NPrPhe(4-CF3)][Sar][hPhe(3-Cl-4-CF3)]P[Ac5c][NMeGly(cPent)][NMeD]-Morpholide; lactam N-11) | B (a compound having 3 or more and less than 10 is denoted as B) | C (A compound having a KD ratio of 0.1 or more and less than 3 is denoted as C)
12 | 0.42 nM | CCCN1C(=O)[C@@H]2CCN2C(=O)CN(CC)C(=O)[C@H]([C@@H](C)CC)NC(=O)[C@H](CC(C)C)N(C)C(=O)C[C@@H](C(=O)N2CCOCC2)N(C)C(=O)[C@H](C2CCCC2)N(C)C(=O)C2(CCCC2)NC(=O)[C@@H]2CCCN2C(=O)[C@H](CCc2ccc(C(F)(F)F)c(Cl)c2)NC(=O)CN(C)C(=O)[C@@H]1Cc1ccc(C(F)(F)F)cc1 [PP0259] ([NMeL]I[NEtG][Aze][NPrPhe(4-CF3)][Sar][hPhe(3-Cl-4-CF3)]P[Ac5c][NMeGly(cPent)][NMeD]-Morpholide; lactam N-11) | C (A compound having a KD ratio of 0.1 or more and less than 3 is denoted as C) | B (a compound having 3 or more and less than 10 is denoted as B)
